Source: PMC6327999, “Hydroxyl-substituted double Schiff-base condensed 4-piperidone/cyclohexanones as potential anticancer agents with biological evaluation” (Journal of Enzyme Inhibition and Medicinal Chemistry, 2019)

Key:
Type in all cases: cell-based
[1] = test system: human lung carcinoma cells (A549); test: Cytotoxicity, MTT assay, A549; settings: for IC50: Homo sapiens, A549, MTT, 24 hours; for A549 SI: quotient of the IC50 values towards nonmalignant LO2 cells
From the text: (§1) Compounds 2a–d, 3a–e, 4a–e, 5a–d, and 6a–c were screened against human neoplastic cell lines such as human lung carcinoma cells (A549), human gastric adenocarcinoma cells (SGC7901), human cervical carcinoma cells (HeLa), human liver hepatocellular carcinoma cell line (Hepg2), human chronic myelogenous leukemia cell line (K562), human acute mononuclear granulocyte leukemia (THP-1), human normal heptical cell line (LO2) (Table 1) using modified MTT assay (3-(4,5-dimethyl-2-thiazolyl)-2,5-diphenyl-2-H-tetrazolium bromide, MTT, Dojindo Laboratories, Tokyo, Japan). All cell lines were maintained at 37 °C in a humidified 5% CO2 and 95% air atmosphere. The HePG2 cell lines were cultured in DMEM containing 10% fetal bovine serum. Other cell lines were grown in medium 1640 and supplemented with 10% fetal bovine serum. […] Controls were prepared with 0.1% DMSO (v/v) only. The cells were seeded in a 96-well plate in 200 µL medium per well at a density of 1 × 10^4 cells/well for 24 hours. The cells were treated with serial concentrations of compound and incubated for 24 hours. Cells with only culture media were used as control. After the media was removed, 20 µL of MTT (5 mg/mL) was added then the plates were incubated for 4 hours at 37 °C in cell culture incubator. The MTT containing media were removed and then 150 µL of DMSO was added to dissolve the dark-blue formazan crystals. The optical density (OD) was measured by a multi-well plate reader (TECAN, Männedorf, Switzerland) at 570 nm. The results are expressed as a decrease in the cell viability (%) in comparison to untreated controls. The concentration of each compound was examined in triplicate, and the IC50 values are expressed in Table 1. The concentrations of the compounds were 50, 20, 10, 5, 2.5, 1, 0.5, 0.1, 0.05 and 0.01 µg/mL. Doxorubicin (DOX) and Curcumin were used as positive controls. […] The concentrations of curcumin used were 100, 50, 25, 12.5, 6.25, 3.125, 1, 0.5 and 0.1 µg/mL.

[2] = test system: human gastric adenocarcinoma cells (SGC7901); test: Cytotoxicity, MTT assay, SGC7901; settings: for IC50: Homo sapiens, SGC-7901, MTT, 24 hours; for SGC7901 SI: quotient of the IC50 values towards nonmalignant LO2 cells
From the text: as §1

[3] = test system: human liver hepatocellular carcinoma cell line (Hepg2); test: Cytotoxicity, MTT assay, HePG2; settings: for IC50: Homo sapiens, HepG2, MTT, 24 hours; for HePG2 SI: quotient of the IC50 values towards nonmalignant LO2 cells
From the text: as §1, with “µg/mL.” for “µg/mL. Doxorubicin (DOX) and Curcumin were used as positive controls.”

[4] = test system: human cervical carcinoma cells (HeLa); test: Cytotoxicity, MTT assay, HeLa; settings: for IC50: Homo sapiens, HeLa, MTT, 24 hours; for HeLa SI: quotient of the IC50 values towards nonmalignant LO2 cells
From the text: as §1

[5] = test system: human chronic myelogenous leukemia cell line (K562); test: Cytotoxicity, MTT assay, K562; settings: for IC50: Homo sapiens, K562, MTT, 24 hours; for K562 SI: quotient of the IC50 values towards nonmalignant LO2 cells
From the text: as §1

[6] = test system: human acute mononuclear granulocyte leukemia (THP-1); test: Cytotoxicity, MTT assay, THP-1; settings: for IC50: Homo sapiens, THP-1, MTT, 24 hours; for THP-1 SI: quotient of the IC50 values towards nonmalignant LO2 cells
From the text: as §1

[7] = test system: human normal heptical cell line (LO2); test: Cytotoxicity, MTT assay, non-malignant LO2; settings: 24 hours, non-malignant cells
From the text: as §1

[8] = test system: human carcinoma cell lines A549, SGC7901, HePG2, HeLa, K562, THP-1; test: Cytotoxicity, MTT assay, panel of human carcinoma cell lines (average / overall); settings: average over the six carcinoma cell lines; for IC50: Homo sapiens, read-out: Ave IC50
From the text: as §1
The cytotoxicity activities against human carcinoma cell lines A549, SGC7901, HePG2, HeLa, K562, THP-1 and cytotoxicity toward LO2 cell lines were evaluated by MTT method. DOX and curcumin were used as positive control. The selectivity index (SI) is the quotient of the IC50 values towards nonmalignant LO2 cells. […] Especially for 4a–e, 5a–d, and 6a–c, this ratio can reach about 92%.

Compound	IC50 [1]	A549 SI [1]	IC50 [2]	SGC7901 SI [2]	IC50 [3]	HePG2 SI [3]	IC50 [4]	HeLa SI [4]	IC50 [5]	K562 SI [5]	IC50 [6]	THP-1 SI [6]	IC50 [7]	IC50 [8]	Ave SI [8]
COc1ccc(/C=N/c2cccc(/C=C3\CCC/C(=C\c4cccc(/N=C/c5ccc(OC)cc5O)c4)C3=O)c2)c(O)c1 [3d]	4100 ± 600 nM	2.8	7100 ± 1000 nM	1.6	4000 ± 100 nM	2.9	13100 ± 1000 nM	0.9	3200 ± 20 nM	3.6	3200 ± 30 nM	3.6	11300 ± 100 nM	5800 nM	2.5
COc1ccc(/C=N/c2ccc(F)c(/C=C3\CNC/C(=C\c4cc(/N=C/c5ccc(OC)cc5O)ccc4F)C3=O)c2)c(O)c1 [5d]	2500 ± 100 nM	5.8	1800 ± 100 nM	8.3	2700 ± 200 nM	5.6	3800 ± 200 nM	3.8	1500 ± 100 nM	9.7	2100 ± 200 nM	6.8	14600 ± 1260 nM	2400 nM	6.7
O=C1/C(=C/c2cccc(/N=C/c3cc(F)ccc3O)c2)CCC/C1=C\c1cccc(/N=C/c2cc(F)ccc2O)c1 [3b]	6100 ± 400 nM	2.8	2700 ± 600 nM	6.4	2800 ± 100 nM	6.1	8900 ± 200 nM	1.9	3400 ± 10 nM	5.0	1600 ± 100 nM	10.5	17100 ± 100 nM	4300 nM	5.5
COc1ccc(/C=N/c2cccc(/C=C3\CN(C)C/C(=C\c4cccc(/N=C/c5ccc(OC)cc5O)c4)C3=O)c2)c(O)c1 [4d]	2600 ± 500 nM	4.4	2300 ± 100 nM	5.1	1110 ± 100 nM	10.6	4100 ± 100 nM	2.8	2000 ± 20 nM	6.0	1000 ± 30 nM	12.3	11700 ± 100 nM	2200 nM	6.9
COc1cc(Br)cc(/C=N/c2cccc(/C=C3\CN(C)C/C(=C\c4cccc(/N=C/c5cc(Br)cc(OC)c5O)c4)C3=O)c2)c1O [4e]	1500 ± 300 nM	7.2	2000 ± 300 nM	5.4	1270 ± 20 nM	8.6	2600 ± 100 nM	4.2	1800 ± 10 nM	5.9	900 ± 100 nM	11.8	10900 ± 200 nM	1700 nM	7.2
Nc1ccc(F)c(/C=C2\CNC/C(=C\c3cc(N)ccc3F)C2=O)c1 [2c]	3400 ± 1200 nM	5.5	2500 ± 800 nM	7.4	5800 ± 200 nM	3.2	2200 ± 100 nM	8.7	2000 ± 100 nM	9.3	1400 ± 200 nM	13.9	18800 ± 1400 nM	2900 nM	8.0
CN1C/C(=C\c2cc(/N=C/c3cc(O)ccc3O)ccc2F)C(=O)/C(=C/c2cc(/N=C/c3cc(O)ccc3O)ccc2F)C1 [6b]	2300 ± 100 nM	9.1	2600 ± 100 nM	8.3	2700 ± 200 nM	7.8	3400 ± 400 nM	6.2	5100 ± 300 nM	4.2	1800 ± 100 nM	12.0	21300 ± 2000 nM	3000 nM	7.9
CN1C/C(=C\c2cccc(/N=C/c3cc(F)ccc3O)c2)C(=O)/C(=C/c2cccc(/N=C/c3cc(F)ccc3O)c2)C1 [4b]	4100 ± 400 nM	3.4	1400 ± 200 nM	10.0	1070 ± 100 nM	12.9	3500 ± 100 nM	4.0	2150 ± 1000 nM	6.4	1200 ± 30 nM	11.5	13800 ± 100 nM	2200 nM	8.0
COc1cc(Br)cc(/C=N/c2cccc(/C=C3\CCC/C(=C\c4cccc(/N=C/c5cc(Br)cc(OC)c5O)c4)C3=O)c2)c1O [3e]	2500 ± 400 nM	4.4	3000 ± 800 nM	3.8	1900 ± 10 nM	6.0	12800 ± 900 nM	0.9	4200 ± 100 nM	2.7	3300 ± 100 nM	3.4	11300 ± 300 nM	4600 nM	3.5
